The source of these data is patent US5650428A, “Arylsulfonamide derivative and pharmaceutical compositions and use thereof” (NKK Corporation, priority 1993, dated 1997).

As a reminder, the IC50 is the concentration that inhibits the measured activity by half.

The target of test [1] is T1, thromboxane A2 (TxA2) receptor (Cavia porcellus, UniProt A0A286Y4I8).
T1 construct: to obtain washed platelets; from tissue; host or cells: washed platelets of male Hartley guinea pigs
T1 sequence (A0A286Y4I8 1-347): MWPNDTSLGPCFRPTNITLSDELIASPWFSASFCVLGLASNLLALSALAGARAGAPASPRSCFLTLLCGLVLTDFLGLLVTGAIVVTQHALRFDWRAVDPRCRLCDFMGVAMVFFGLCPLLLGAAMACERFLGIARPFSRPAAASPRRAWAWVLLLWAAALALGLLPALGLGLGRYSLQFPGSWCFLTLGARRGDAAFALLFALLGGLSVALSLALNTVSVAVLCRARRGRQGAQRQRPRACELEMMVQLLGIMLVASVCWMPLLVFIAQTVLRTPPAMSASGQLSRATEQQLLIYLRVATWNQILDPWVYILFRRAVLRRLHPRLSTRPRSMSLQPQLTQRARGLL
Briefly: TxA2 antagonist action by binding assay. As to conditions: washed guinea pig platelets, 1 nM [3H]-SQ29,548, 45 minutes at 25° C. In outline:
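Washed platelets from male Hartley guinea pigs, 4×10^8 cells/ml, were incubated with test compound and a labelled ligand for 45 minutes at 25 °C. Bound radioactivity was collected by GF/B filtration and scintillation counting; IC50 came from binding/control-binding ratio.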

The target of test [2] is T2, isolated rat artery (thoracic aorta) (Rattus norvegicus, UniProt P34978).
T2 construct: the thoracic aorta was quickly removed; from tissue; host or cells: thoracic aorta rings of male Wistar rats, endothelium 'gently cleaned'
T2 sequence (P34978 1-341): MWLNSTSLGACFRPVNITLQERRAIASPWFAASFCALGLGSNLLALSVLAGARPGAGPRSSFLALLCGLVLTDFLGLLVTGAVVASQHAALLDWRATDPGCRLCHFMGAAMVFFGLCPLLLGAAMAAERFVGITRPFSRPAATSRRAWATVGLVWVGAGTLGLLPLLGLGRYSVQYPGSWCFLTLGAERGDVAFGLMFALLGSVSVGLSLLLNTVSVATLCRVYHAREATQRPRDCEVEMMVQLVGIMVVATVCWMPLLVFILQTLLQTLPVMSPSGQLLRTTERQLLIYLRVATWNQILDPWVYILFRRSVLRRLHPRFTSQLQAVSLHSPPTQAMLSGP
Briefly: Inhibitory activity of vasoconstriction of isolated rat artery. The test is classed as cell-based. The conditions noted are these: pA2; rat thoracic aorta ring preparation, 37° C.; read-out: B: Inhibitory activity of vasoconstriction (rat artery) (pA2) (converted). The method, then:
(2) Inhibitory Activity of Vasoconstriction of Isolated Rat Artery
Rats (Wistar; male; body weight=250-300 g) were stunned by a blow to the head and exsanguinated. Then, the thoracic aorta was quickly removed, and the connective tissue and the endothelium were gently cleaned and then ring preparation was cut. The preparations were suspended in a 25 ml organ bath which was maintained at 37° C. under an aeration of 95% O2 -5% CO2. An initial tension of 1.5 g was applied and preincubation was performed for 60 minutes. The organ bath was filled with Krebs-Henselait solution (NaCl=118, KCl=4.7, CaCl2 2.55, MgSO4 =1.18, KH2 PO4 =1.18, NaHCO3 =24.88, glucose=11.1). The constriction of the samples was ionotropicaly measured using an isometric transducer (UL-10GR, Minebea) and an amplifier (6M92, NEC SANEI) and recorded by a recticorder (RECTI-HORIZ-8K, NEC SANEI).

For the next test, the system named is rat platelet. Briefly: Inhibitory activity of aggregation in rat platelet. As to conditions: rat platelet rich plasma, arachidonic acid (final concentration 0.5 mM) as inducer; read-out: C: Inhibitory activity of aggregation in rat platelet (IC50; μM). Type of test: cell-based. In outline:
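Platelet-rich plasma was prepared from citrated (0.38% final) rat abdominal arterial blood and preincubated 1 min at 37°C. Compound was added 2 min before arachidonic acid (0.5 mM final). Light transmission change was recorded for 5 min.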

For `O=C(O)CCc1ccc(NC(=O)C(COC2CCCCO2)NS(=O)(=O)c2ccc(Cl)cc2)cc1` (racemic) [Example 42, (RS)-N-(4-(2-carboxyethyl)phenyl)-2-(4-chlorobenzenesulfonylamino)-3-(tetrahydropyran-2-yloxy)propanamide], the half-maximal inhibitory concentration (IC50) in test [1] was determined as 0.088 µM; with rat platelet it was 0.54 µM. Besides, the Kb in test [2] was 12.9 nM.

As to `O=C(O)c1cccc(NC(=O)C(COC2CCCCO2)NS(=O)(=O)c2ccc(Cl)cc2)c1` (racemic) [Example 44, (RS)-N-(3-carboxyphenyl)-2-(4-chlorobenzenesulfonylamino)-3-(tetrahydropyran-2-yloxy) propanamide], the half-inhibitory concentration (IC50) in test [1] was determined as 0.4 µM; in the test on rat platelet it was 0.3 µM. The Kb in test [2] is 32.4 nM.

For `O=C(O)Cc1ccc(NC(=O)C(COC2CCCCO2)NS(=O)(=O)c2ccc(Br)cc2)cc1` (racemic) [Example 54, (RS)-2-(4-bromobenzenesulfonylamino)-N-(4-(carboxymethyl)phenyl)-3-(tetrahydropyran-2-yloxy)propanamide], the IC50 was determined as 0.033 µM in test [1] and 0.17 µM in the test on rat platelet. For the same molecule, the Kb in test [2] is 5.89 nM.

Consider `O=C(O)Cc1ccc(NC(=O)C(COC2CCCCO2)NS(=O)(=O)c2ccc(I)cc2)cc1` (racemic) [Example 55, (RS)-N-(4-(carboxymethyl)phenyl)-2-(4-iodobenzenesulfonylamino)-3-(tetrahydropyran-2-yloxy)propanamide], for which the IC50 in test [1] is 0.016 µM; in the test with rat platelet, 0.53 µM. For the same molecule, the Kb in test [2] is 3.8 nM.

`O=C(O)COc1ccc(CCNS(=O)(=O)c2ccc(Cl)cc2)cc1` [Control Compound, 4-[2-(4-chlorobenzenesulfonylamino)ethyl]-phenoxy acetic acid, reference compound]: the values for the IC50 (in test [1]; in the test with rat platelet) were 2 µM and 1.7 µM, respectively. The Kb in test [2] is 126 nM.

With `O=C(O)c1cccc(NC(=O)[C@H](COC2CCCCO2)NS(=O)(=O)c2ccc(Cl)cc2)c1` (stereo partly drawn) [Example 43, (S)-N-(3-carboxyphenyl)-2-(4-chlorobenzenesulfonylamino)-3-(tetrahydropyran-2-yloxy)propanamide], in test [2], the Kb is 41.7 nM.

In the case of `O=C(O)c1ccc(NC(=O)[C@H](COC2CCCCO2)NS(=O)(=O)c2ccc(Cl)cc2)cc1` (stereo partly drawn) [Example 39, (S)-N-(4-carboxyphenyl)-2-(4-chlorobenzenesulfonylamino)-3-(tetrahydropyran-2-yloxy)propanamide], in test [1], the IC50 stood at 0.2 µM. The Kb in test [2] was 12.6 nM.

Turning to `O=C(O)Cc1ccc(NC(=O)C(COC2CCCCO2)NS(=O)(=O)c2ccc(Cl)cc2)cc1` (racemic) [Example 41, (RS)-N-(4-(carboxymethyl)phenyl)-2-(4-chlorobenzenesulfonylamino)-3-(tetrahydropyran-2-yloxy)propanamide], the IC50 turned out to be 0.057 µM in test [1] and 0.18 µM with rat platelet. The Kb in test [2] was 6.92 nM.

Turning to `O=C(O)c1ccc(NC(=O)C(COC2CCCCO2)NS(=O)(=O)c2ccc(Cl)cc2)cc1` (racemic) [Example 40, (RS)-N-(4-carboxyphenyl)-2-(4-chlorobenzenesulfonylamino)-3-(tetrahydropyran-2-yloxy)propanamide], the IC50 worked out at 0.5 µM in test [1] and 0.52 µM in the test on rat platelet. The Kb in test [2] is 28.8 nM.

`O=C(O)Cc1ccc(NC(=O)C(COc2cccc(Cl)c2)NS(=O)(=O)c2ccc(I)cc2)cc1` (racemic) [Example 151, (RS)-N-(4-(carboxymethyl)phenyl)-3-(3-chlorophenoxy)-2-(4-iodobenzenesulfonylamino) propanamide]: the results for the IC50 (in test [1]; with rat platelet) were 0.019 µM and 1.7 µM, respectively.

Take `O=C(O)Cc1ccc(NC(=O)C(COc2ccc(Cl)cc2)NS(=O)(=O)c2ccc(Br)cc2)cc1` (racemic) [Example 143, (RS)-2-(4-bromobenzenesulfonylamino)-N-(4-(carboxymethyl)phenyl)-3-(4-chlorophenoxy) propanamide]: the IC50 is 0.037 µM in test [1] and 1.7 µM in the test with rat platelet.
